Experimental data reported in patent US10905117B2, “Antimicrobial agent containing polyalkyleneimine derivative” (NIPPON SHOKUBAI CO., LTD, priority 2014, dated 2021).

Legend:
Assay type in all cases: cell-based
[1] = system: Escherichia coli (NBRC-3972); assay: Minimum growth inhibitory concentration (MIC); conditions: 0.1% by weight agent with 1% by weight NaOH, pH 12.5, stored 18 days at 55° C.
Procedure: (§1) An aqueous solution containing the antimicrobial agent was serially diluted by two fold with a Mueller-Hinton medium to prepare dilution series of a medium containing the antimicrobial agent. After that, the medium containing the antimicrobial agent at each concentration was added, in an amount of 50 μl each, to a 96 well polystyrene plate. […] The prepared liquid containing microbial cells was diluted to 10×10^6 cells/mL or so in a Mueller-Hinton medium, and added in an amount of 50 μl to each of the dilution series prepared in the above. […] Presence or absence of the growth of the bacterial cells was determined with a naked eye by following an increase in turbidity. To an aqueous solution added with the polymer 1 which has been obtained in Preparation Example 1 and benzalkonium chloride at 0.1% by weight, various kinds of alkali modifying agent shown in Table 8 were mixed at 1% by weight to prepare an antimicrobial agent composition. The storage stability test was carried out for the antimicrobial agent compositions for 18 days at 55° C. […] Meanwhile, MIC values were described as concentration of the antimicrobial agent.

[2] = system: Staphylococcus aureus (NBRC-12732); assay: Minimum growth inhibitory concentration (MIC); conditions: 0.1% by weight agent with 1% by weight NaOH, pH 12.5, stored 18 days at 55° C.
Procedure: as §1

[3] = system: Escherichia coli (NBRC-3972) and/or Staphylococcus aureus (NBRC-12732); assay: MIC in the presence of an anionic surfactant; conditions: in the presence of linear alkylbenzene sulfate 80 ppm and polyoxyalkylenealkyl ether sulfate 80 ppm
Procedure: An aqueous solution containing the antimicrobial agent was serially diluted by two fold with a Mueller-Hinton medium to prepare dilution series of a medium containing the antimicrobial agent. After that, the medium containing the antimicrobial agent at each concentration was added, in an amount of 50 μl each, to a 96 well polystyrene plate. Next, colonies of Escherichia coli (NBRC-3972) and/or Staphylococcus aureus (NBRC-12732) which have been grown for 18 hours in a Mueller-Hinton agar medium were suspended in a Butterfield's buffer solution to prepare a liquid containing microbial cells of 10×10^8 cells/mL or so. The prepared liquid containing microbial cells was diluted to 10×10^6 cells/mL or so in a Mueller-Hinton medium, and added in an amount of 50 μl to each of the dilution series prepared in the above. […] Presence or absence of the growth of the bacterial cells was determined with a naked eye by following an increase in turbidity.
As for the anionic surfactant, linear alkylbenzene sulfate was used at 80 ppm and polyoxyalkylenealkyl ether sulfate was used at 80 ppm.

Question: Which results are given for Benzalkonium chloride?
Answer: MIC Escherichia coli after storage stability test [1]: 250 ppm; MIC Staphylococcus aureus after storage stability test [2]: 250 ppm; MIC [3]: 625 ppm
